Assay results: US6492399B1, “Pharmaceutical compositions and methods for use” (Targacept, Inc., priority 1998, dated 2002)

How the values were obtained:
Format in all cases: biochemical
[1] = system: Rat brain synaptosomes; assay: Neurotransmitter release from brain synaptosomes; conditions: 10 μM ligand; percentage of release with 10 μM (S)-(-)-nicotine or 300 μM TMA
Description: Neurotransmitter Release From Brain Synaptosomes
Neurotransmitter release was measured using techniques similar to those previously published (Bencherif M, et al . . . JPET279: 1413-1421, 1996).
Rat brain synaptosomes were prepared as follows: Female Sprague Dawley rats (100-200 g) were killed by decapitation after anesthesia with 70% CO2. Brains are dissected, and hippocampus, striatum, and thalamus isolated, and homogenized in 0.32 M sucrose containing 5 mM HEPES pH 7.4 using a glass/glass homogenizer. The tissue was then centrifuged for 1000×g for 10 minutes and the pellet discarded. The supernatant was centrifuged at 12000×g for 20 minutes. The resultant pellet was re-suspended in perfusion buffer (128 mM NaCl, 1.2 mM KH2PO4, 2.4 mM KCl, 3.2 mM CaCl2, 1.2 mM MgSO4, 25 mM HEPES, 1 mM Ascorbic acid, 0.01 mM pargyline HCl and 10 mM glucose pH 7.4) and centrifuged for 15 minutes at 25000×g. The final pellet was resuspended in perfusion buffer and placed in a water bath (37° C.) for 10 minutes. Radiolabeled neurotransmitter is added (30 μL ^3H DA, 20 μL ^3H NE, 10 μL ^3H glutamate) to achieve a final concentration of 100 nM, vortexed and placed in a water bath for additional 10 minutes. Tissue-loaded filters is placed onto 11-mm diameter Gelman A/E filters on an open-air support. After a 10-minute wash period, fractions are collected to establish the basal release and agonist applied in the perfusion stream. Further fractions were collected after agonist application to re-establish the baseline. The perfusate was collected directly into scintillation vials and released radioactivity was quantified using conventional liquid scintillation techniques. Release of neurotransmitter was determined in the presence of 10μM of various ligands and was expressed as a percentage of release obtained with a concentration of 10 μM (S)-(−)-nicotine or 300 μM TMA resulting in maximal effects.

[2] = system: rubidium ion flux; assay: Determination of rubidium ion release (rubidium ion flux assay); conditions: rubidium ion released relative to 300 uM tetramethylammonium ion
Description: Determination of Rubidium Ion Release
Rubidium release was measured using the techniques described in Bencherif et al., JPET, 279: 1413-1421 (1996). Reported EC50 values are expressed in nM, and Ema, values represent the amount of rubidium ion released relative to 300 uM tetramethylammonium ion, on a percentage basis.

[3] = system: dopamine release; assay: Determination of dopamine release; conditions: amount released relative to (S)-(-)-nicotine
Description: Determination of Dopamine Release
Dopamine release was measured using the techniques described in U.S. Pat. No. 5,597,919 to Dull et al. Release is expressed as a percentage of release obtained with a concentration of (S)-(−)-nicotine resulting in maximal effects. Reported EC50 values are expressed in nM, and Emax values represent the amount released relative to (S)-(−)-nicotine on a percentage basis.

Structure (SMILES)	neurotransmitter release Emax [1] [%]	Emax in the rubidium ion flux assay [2] [%]	Emax for dopamine release [3] [%]
CC(N)CC=Cc1cncc(OC(C)C)c1 (centres unmarked) [Sample No. 12, (4E)-5-(3-(5-isopropoxypyridin)yl)-4-penten-2-amine hemigalactarate]	32	–	–
CNC(C)CC=Cc1cncc(C(F)(F)F)c1 (centres unmarked) [Sample No. 10, (4E)-N-methyl-5-(3-(5-trifluoromethylpyridin)yl)-4-penten-2-amine]	50	0	–
CCSc1cncc(/C=C/CCNC)c1 [Sample No. 9, (3 E)-N-methyl-4-(3-(5-ethylthiopyridin)yl)-3-buten-1-amine hemigalactarate]	–	40	39
CNCC/C=C/c1cncc(C(=O)NCc2ccccc2)c1 [Sample No. 2, (3E)-N-methyl-N-[3-(5-(N-benzylcarboxamido)pyridin)yl]-3-buten-1-amine]	–	–	12
CNCC/C=C/c1cncc(OCC(C)C)c1 [Sample No. 6, (3E)-N-methyl-4-(3-(5-isobutoxypyridin)yl)-3-buten-1-amine hemigalactarate]	–	15	25
CNC(C)CC=Cc1ccc[n+]([O-])c1 (centres unmarked) [Sample No. 8, (4E)-N-methyl-5-(3-(1-oxopyridin)yl)-4-penten-2-amine]	9	–	–
CN[C@@H](C)C/C=C/c1cc(OC(C)C)c[n+]([O-])c1 [Sample No. 5]	19	–	–
CNC(C)CC=Cc1cncc(O)c1 (centres unmarked) [Sample No. 13, (4E)-N-methyl-5-(3-(5-hydroxypyridin)yl)-4-penten-2-amine sesquioxalate]	80	–	–
